Key:
rats [1] = details: cited from earlier work
[2] = cited from earlier work; for Water solubility: at 25 C.; for VP: at 25 deg C.
rats [3] = assay: acute oral toxicity in rats (LD50); format: in vivo, rat; details: weight for weight basis
[4] = test system: Common garden slugs (Arion distinctus); assay: slug mucosal contact test (mucus production and body weight loss); format: in vivo; details: for Mucus loss initial test / Mucus loss 24 test: 30-min contact, % of body weight; for Mucus loss initial test: 60 mg test substance, mean n = 6, initial treatment; for Mucus loss 24 test: second treatment 24 hours later; for Mucus loss 24 test / Remaining body weight after 24 h and 48 h: mean n = 6; for Potency - loss of body weight relative to metaldehyde after deduction of weight loss from the control: after 48 hours; for Potency - loss of body weight relative to metaldehyde after deduction of weight loss from the control / Potency - loss of mucus relative to metaldehyde: metaldehyde = 100; for Combined mucus loss: combined losses of mucus for the two tests; for toxicity in mollusc foot contact tests relative to metaldehyde: contact with the mucus membrane of molluscs; for Potency - loss of mucus relative to metaldehyde: from combined mucus loss; for Remaining body weight after 24 h and 48 h: percentage of the initial body weight; for Reduction in toxic response relative to metaldehyde: Loss of body weight (Table 3) / Reduction in toxic response relative to metaldehyde: Loss of mucus (Table 2): weight for weight basis
Procedure: To investigate relative toxicity of aldehydes to molluscs, tests were conducted using a method adapted from Adriaens et al. The Mucosal Toxicity of Different Benzalkonium Chloride Analogues Evaluated with an Alternative Test. Pharmaceutical Research, Vol. 18, pages 937-941, 2001.
Common garden slugs (Arion distinctus) weighing between 1.9 g and 5.2 g were collected from a UK suburban garden and placed into vented plastic boxes lined with paper towels moistened with phosphate buffered saline. The boxes were kept in the shade inside a greenhouse (10° C. minimum) and fed with lettuce and commercial dog food. Experiments were conducted on six slugs for each test treatment using petri dishes containing Whitman Grade 1 general purpose filter papers (90 mm diameter). Filter papers were wetted to saturation with phosphate buffered saline (pH 7.4) and allowed to drain before placing in the petri dishes. At the beginning of each test slugs were placed individually in a petri dish which had been prepared 3 hours previously as a control or with 60 mg of the test substance consisting of fine powdered metaldehyde or a liquid aldehyde. After 30-min incubation slugs were removed and returned to petri dishes with filter papers wetted only with the phosphate buffered saline. The slugs were weighed separately before and after treatment. The change in weight caused by the treatment was calculated and expressed as % (w/w) of the body weight. The petri dishes containing the test medium were also weighed before and after the treatment. The weight of mucus produced was calculated and expressed as % (w/w) of the body weight. The treatment and measurements were repeated 24 hour later and final weights taken after a second 24 hour period.

Structure (SMILES): CC1OC(C)OC(C)O1 (stereo not shown) [Paraldehyde, reference compound]
- LD50 acute oral toxicity (rats [1]): LD 50 2711 mg/kg
- Water solubility [2]: 24140 µg/mL
- VP [2]: 15.7 mm Hg

Structure (SMILES): CCCCCCCC=O [1-octanal]
- oral toxicity in rats lower relative to metaldehyde (rats [3]): approximately 8 fold
- Mucus loss initial test [4]: 3.82 % w/w
- Mucus loss 24 test [4]: 2.98 % w/w
- Potency - loss of body weight relative to metaldehyde after deduction of weight loss from the control [4]: 58%
- Combined mucus loss [4]: 6.8 % w/w
- toxicity in mollusc foot contact tests relative to metaldehyde [4]: less than single fold reductions
- Potency - loss of mucus relative to metaldehyde [4]: 72%
- Remaining body weight after 24 h and 48 h ([4]; 24 h after initial treatment): 78.6 wt %
- Remaining body weight after 24 h and 48 h ([4]; 48 h after initial treatment): 68.7 wt %
- Reduction in toxic response relative to metaldehyde: Loss of body weight (Table 3) [4]: 0.58
- Reduction in toxic response relative to metaldehyde: Loss of mucus (Table 2) [4]: 0.72
- LD50 acute oral toxicity (rats [1]): LD 50 4616 mg/kg
- Water solubility [2]: 394.3 µg/mL
- VP [2]: 1.49 mm Hg

Structure (SMILES): CCCCCCCCC=O [1-nonanal]
- LD50 acute oral toxicity (rats [1]): LD 50 > 5000 mg/kg
- VP [2]: 0.564 mm Hg

Structure (SMILES): CCCCCCCCCC=O [1-decanal]
- oral toxicity in rats lower relative to metaldehyde (rats [3]): approximately 8 fold
- Mucus loss initial test [4]: 3.28 % w/w
- Mucus loss 24 test [4]: 2.64 % w/w
- Potency - loss of body weight relative to metaldehyde after deduction of weight loss from the control [4]: 40%
- Combined mucus loss [4]: 5.92 % w/w
- toxicity in mollusc foot contact tests relative to metaldehyde [4]: less than single fold reductions
- Potency - loss of mucus relative to metaldehyde [4]: 62%
- Remaining body weight after 24 h and 48 h ([4]; 24 h after initial treatment): 79.7 wt %
- Remaining body weight after 24 h and 48 h ([4]; 48 h after initial treatment): 74.1 wt %
- Reduction in toxic response relative to metaldehyde: Loss of body weight (Table 3) [4]: 0.40
- Reduction in toxic response relative to metaldehyde: Loss of mucus (Table 2) [4]: 0.62
- LD50 acute oral toxicity (rats [1]): LD 50 3096 mg/kg
- Water solubility [2]: 43.52 µg/mL
- VP [2]: 0.235 mm Hg

Structure (SMILES): CCCCCC=O [Hexanal]
- VP [2]: 9.57 mm Hg

Structure (SMILES): CCC=O [Propanal, reference compound]
- VP [2]: 317 mm Hg

Structure (SMILES): CC1OC(C)OC(C)OC(C)O1 (stereo not shown) [Metaldehyde, reference compound]
- Mucus loss initial test [4]: 5.55 % w/w
- Mucus loss 24 test [4]: 3.94 % w/w
- Potency - loss of body weight relative to metaldehyde after deduction of weight loss from the control [4]: 100%
- Combined mucus loss [4]: 9.49 % w/w
- Potency - loss of mucus relative to metaldehyde [4]: 100%
- Remaining body weight after 24 h and 48 h ([4]; 24 h after initial treatment): 68.5 wt %
- Remaining body weight after 24 h and 48 h ([4]; 48 h after initial treatment): 55.4 wt %
- LD50 acute oral toxicity (rats [1]): LD50 630 mg/kg
- VP [2]: 0.000674 mm Hg

Structure (SMILES): CC=O [Acetaldehyde, reference compound]
- LD50 acute oral toxicity (rats [1]): LD50 661 mg/kg
- VP [2]: 902 mm Hg

Structure (SMILES): CCCCCCC=O [1-heptanal]
- oral toxicity in rats lower relative to metaldehyde (rats [3]): approximately 8 fold
- Mucus loss initial test [4]: 2.77 % w/w
- Mucus loss 24 test [4]: 0.55 % w/w
- Potency - loss of body weight relative to metaldehyde after deduction of weight loss from the control [4]: 33%
- Combined mucus loss [4]: 3.32 % w/w
- toxicity in mollusc foot contact tests relative to metaldehyde [4]: less than single fold reductions
- Potency - loss of mucus relative to metaldehyde [4]: 35%
- Remaining body weight after 24 h and 48 h ([4]; 24 h after initial treatment): 85.2 wt %
- Remaining body weight after 24 h and 48 h ([4]; 48 h after initial treatment): 76.5 wt %
- Reduction in toxic response relative to metaldehyde: Loss of body weight (Table 3) [4]: 0.35
- Reduction in toxic response relative to metaldehyde: Loss of mucus (Table 2) [4]: 0.35
- LD50 acute oral toxicity (rats [1]): LD50 > 5000 mg/kg
- Water solubility [2]: 1167 µg/mL
- VP [2]: 3.52 mm Hg

Structure (SMILES): CCCC=O [Butanal]
- VP [2]: 108 mm Hg

Reference: US20190373887A1, “ENCAPSULATED MOLUSCICIDE” (INGWERMAT LIMITED, priority 2015, published 2019)
